# Experimental data reported in ChEMBL document CHEMBL1201862, “PubChem BioAssay data set” (2004).
# The source made the active and inactive calls.
# Tests used:
# Estrogen receptor = Estrogen receptor (Homo sapiens, UniProt P03372); assay: ERα coactivator recruitment enhancers – biochemical, TR-FRET, ERα LBD, dose response (AID 737)
# Ion channel NompC = Ion channel NompC (Danio rerio, UniProt Q7T1G6); assay: Fluorescence counterscreen assay for TRPML3 agonists: dose response cell-based high-throughput screening assay to identify agonists of the transient receptor potential channel N1 (TRPN1). [Related pubchem assays: 1526, 1424, 1448 ]; assay type: functional
# Mucolipin-3 = Mucolipin-3 (Homo sapiens, UniProt Q8TDD5); assay: Dose response cell-based high-throughput screening assay for agonists of the transient receptor potential channel ML3 (TRPML3). [Related pubchem assays: 1526, 1424, 1448 ]; assay type: functional
# [1] = molecular target: T1, Replicative DNA helicase DnaB (Mycobacterium tuberculosis, UniProt P9WMR3); assay: DnaB intein splicing inhibitors, dose response, biochemical, cell-free fluorescence (AID 449749); assay type: functional
# T1 sequence (P9WMR3 whole entry): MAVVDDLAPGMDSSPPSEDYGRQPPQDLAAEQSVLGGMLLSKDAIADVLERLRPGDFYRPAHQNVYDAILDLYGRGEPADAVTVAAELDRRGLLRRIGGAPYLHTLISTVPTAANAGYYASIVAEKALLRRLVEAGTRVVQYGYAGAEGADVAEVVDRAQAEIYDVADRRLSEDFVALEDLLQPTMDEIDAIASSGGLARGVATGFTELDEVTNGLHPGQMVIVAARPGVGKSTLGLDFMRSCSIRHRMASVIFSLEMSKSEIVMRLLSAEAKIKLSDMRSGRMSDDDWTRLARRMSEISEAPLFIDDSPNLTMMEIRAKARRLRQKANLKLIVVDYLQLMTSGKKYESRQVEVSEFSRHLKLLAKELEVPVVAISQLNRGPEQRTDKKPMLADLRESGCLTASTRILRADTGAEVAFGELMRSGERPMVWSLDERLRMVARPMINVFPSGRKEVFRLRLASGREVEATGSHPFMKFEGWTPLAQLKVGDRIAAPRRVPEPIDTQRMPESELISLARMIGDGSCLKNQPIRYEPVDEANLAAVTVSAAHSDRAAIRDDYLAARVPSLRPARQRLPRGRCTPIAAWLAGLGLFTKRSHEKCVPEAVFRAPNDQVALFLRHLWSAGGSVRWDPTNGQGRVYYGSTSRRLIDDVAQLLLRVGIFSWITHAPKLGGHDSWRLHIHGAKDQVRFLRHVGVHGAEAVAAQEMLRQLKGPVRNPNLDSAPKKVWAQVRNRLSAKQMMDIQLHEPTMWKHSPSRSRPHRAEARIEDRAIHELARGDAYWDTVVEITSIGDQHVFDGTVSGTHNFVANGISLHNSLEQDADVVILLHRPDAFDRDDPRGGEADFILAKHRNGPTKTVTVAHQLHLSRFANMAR
# Cytochrome P450 2C9 = Cytochrome P450 2C9 (Homo sapiens, UniProt P11712)
# Protein RecA = molecular target: T2, Protein RecA (Mycobacterium tuberculosis, UniProt P9WHJ3); assay: Fluorescence Cell-Free Homogeneous Dose Retest to Identify Inhibitors of RecA-Intein Splicing Activity. [Related pubchem assays (depositor defined):AID2097, AID2223, AID489010, AID492950]; assay type: functional
# T2 sequence (P9WHJ3 whole entry): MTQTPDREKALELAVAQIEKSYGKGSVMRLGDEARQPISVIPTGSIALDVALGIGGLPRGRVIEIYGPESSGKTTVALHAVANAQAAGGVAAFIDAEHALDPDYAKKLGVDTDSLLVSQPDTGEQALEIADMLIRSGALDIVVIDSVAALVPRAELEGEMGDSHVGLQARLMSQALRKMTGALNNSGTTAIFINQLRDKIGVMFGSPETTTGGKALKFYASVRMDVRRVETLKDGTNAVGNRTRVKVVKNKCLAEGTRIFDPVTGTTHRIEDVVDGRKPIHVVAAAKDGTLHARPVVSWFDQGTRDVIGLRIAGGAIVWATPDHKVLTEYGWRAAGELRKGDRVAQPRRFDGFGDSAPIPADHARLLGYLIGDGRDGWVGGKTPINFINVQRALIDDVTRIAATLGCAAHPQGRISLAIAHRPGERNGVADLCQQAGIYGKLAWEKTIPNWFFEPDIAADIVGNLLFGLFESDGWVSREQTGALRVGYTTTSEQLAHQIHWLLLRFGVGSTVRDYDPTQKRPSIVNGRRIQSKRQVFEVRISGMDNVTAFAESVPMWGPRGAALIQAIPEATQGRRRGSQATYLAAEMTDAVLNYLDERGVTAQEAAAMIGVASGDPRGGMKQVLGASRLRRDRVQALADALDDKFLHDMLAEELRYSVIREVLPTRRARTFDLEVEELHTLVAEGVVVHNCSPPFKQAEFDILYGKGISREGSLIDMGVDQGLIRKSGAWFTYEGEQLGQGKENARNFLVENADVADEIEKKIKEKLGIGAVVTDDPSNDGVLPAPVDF
# Cytochrome P450 2C19 = Cytochrome P450 2C19 (Homo sapiens, UniProt P33261); assay: Cytochrome panel assay with activity outcomes. Panel member name: p450-cyp2c19 Compounds with AC50 equal or less than 10 uM are considered active; assay type: functional; settings: read-out: AC50
# Prothrombin = Prothrombin (Homo sapiens, UniProt P00734); assay: Thrombin 1536 HTS Dose Response Confirmation. [Related pubchem assays: 1046 (Thrombin 1536 HTS; hits were confirmed in this assay)]; assay type: functional
# [2] = molecular target: 5-hydroxytryptamine receptor 1A (Homo sapiens, UniProt P08908); assay type: functional
# [3] = M. tuberculosis growth inhibition, HTS (AID 449762); assay type: functional
# [4] = molecular target: Protein-tyrosine kinase 2-beta (Homo sapiens, UniProt Q14289);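 further: potency of inhibitors of PYK2 kinase phosphorylation of poly-GT substrate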
# 14-3-3 protein gamma = 14-3-3 protein gamma (Homo sapiens, UniProt P61981); assay: modulators of 14-3-3 gamma client binding – dose response (AID 711); assay type: functional
# 14-3-3 protein gamma, sequence (P61981 whole entry): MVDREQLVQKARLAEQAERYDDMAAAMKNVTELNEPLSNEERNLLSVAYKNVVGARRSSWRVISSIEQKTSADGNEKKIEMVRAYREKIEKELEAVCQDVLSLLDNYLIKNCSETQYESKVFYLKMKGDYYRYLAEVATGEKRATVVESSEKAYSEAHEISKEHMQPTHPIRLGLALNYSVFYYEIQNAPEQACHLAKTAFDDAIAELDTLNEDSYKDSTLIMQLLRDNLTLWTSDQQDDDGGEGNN
# 5-hydroxytryptamine receptor 1A, sequence (P08908 whole entry): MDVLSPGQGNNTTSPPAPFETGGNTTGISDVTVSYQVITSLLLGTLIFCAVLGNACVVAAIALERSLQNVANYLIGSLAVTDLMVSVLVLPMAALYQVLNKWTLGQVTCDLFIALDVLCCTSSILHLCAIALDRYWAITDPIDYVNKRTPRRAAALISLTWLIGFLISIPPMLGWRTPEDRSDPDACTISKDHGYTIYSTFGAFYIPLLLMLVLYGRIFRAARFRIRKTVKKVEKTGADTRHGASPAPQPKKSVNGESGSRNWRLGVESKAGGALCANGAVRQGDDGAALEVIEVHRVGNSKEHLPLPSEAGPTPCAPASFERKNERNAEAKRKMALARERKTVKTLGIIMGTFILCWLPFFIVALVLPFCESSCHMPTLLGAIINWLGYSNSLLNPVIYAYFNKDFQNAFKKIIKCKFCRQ
# Mucolipin-3, sequence (Q8TDD5 whole entry): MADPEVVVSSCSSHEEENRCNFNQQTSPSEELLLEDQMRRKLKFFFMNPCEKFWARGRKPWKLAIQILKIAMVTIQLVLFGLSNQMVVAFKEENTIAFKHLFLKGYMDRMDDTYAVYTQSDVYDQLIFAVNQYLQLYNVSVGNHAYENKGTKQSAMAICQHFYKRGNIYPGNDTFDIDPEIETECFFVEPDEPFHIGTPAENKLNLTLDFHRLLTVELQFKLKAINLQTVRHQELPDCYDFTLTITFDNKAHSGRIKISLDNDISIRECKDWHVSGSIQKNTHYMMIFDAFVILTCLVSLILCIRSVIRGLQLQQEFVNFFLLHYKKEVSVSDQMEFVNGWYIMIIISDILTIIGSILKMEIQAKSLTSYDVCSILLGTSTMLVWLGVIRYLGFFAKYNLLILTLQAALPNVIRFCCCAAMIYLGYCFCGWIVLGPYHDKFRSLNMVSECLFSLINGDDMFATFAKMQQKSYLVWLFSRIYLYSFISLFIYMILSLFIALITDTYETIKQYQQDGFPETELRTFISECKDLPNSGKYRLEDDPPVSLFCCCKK
# Estrogen receptor, sequence (P03372 whole entry, the tested form may be a part): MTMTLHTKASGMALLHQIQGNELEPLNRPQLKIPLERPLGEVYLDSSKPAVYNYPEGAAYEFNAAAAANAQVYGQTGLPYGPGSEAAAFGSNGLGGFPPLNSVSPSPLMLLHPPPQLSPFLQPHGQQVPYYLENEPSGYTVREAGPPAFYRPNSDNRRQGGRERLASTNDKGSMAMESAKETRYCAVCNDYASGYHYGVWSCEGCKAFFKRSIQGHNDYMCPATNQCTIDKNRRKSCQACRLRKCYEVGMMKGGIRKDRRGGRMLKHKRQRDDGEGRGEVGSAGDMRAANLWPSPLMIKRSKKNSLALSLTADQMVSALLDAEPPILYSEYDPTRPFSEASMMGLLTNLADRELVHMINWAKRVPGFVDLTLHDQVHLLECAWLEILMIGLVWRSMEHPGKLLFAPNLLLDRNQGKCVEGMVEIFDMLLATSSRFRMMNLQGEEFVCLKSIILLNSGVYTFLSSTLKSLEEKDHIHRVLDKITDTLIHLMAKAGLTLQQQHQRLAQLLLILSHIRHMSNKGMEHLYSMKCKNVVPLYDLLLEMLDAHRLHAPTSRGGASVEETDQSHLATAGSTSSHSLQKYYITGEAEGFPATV
# Protein-tyrosine kinase 2-beta, sequence (Q14289 whole entry): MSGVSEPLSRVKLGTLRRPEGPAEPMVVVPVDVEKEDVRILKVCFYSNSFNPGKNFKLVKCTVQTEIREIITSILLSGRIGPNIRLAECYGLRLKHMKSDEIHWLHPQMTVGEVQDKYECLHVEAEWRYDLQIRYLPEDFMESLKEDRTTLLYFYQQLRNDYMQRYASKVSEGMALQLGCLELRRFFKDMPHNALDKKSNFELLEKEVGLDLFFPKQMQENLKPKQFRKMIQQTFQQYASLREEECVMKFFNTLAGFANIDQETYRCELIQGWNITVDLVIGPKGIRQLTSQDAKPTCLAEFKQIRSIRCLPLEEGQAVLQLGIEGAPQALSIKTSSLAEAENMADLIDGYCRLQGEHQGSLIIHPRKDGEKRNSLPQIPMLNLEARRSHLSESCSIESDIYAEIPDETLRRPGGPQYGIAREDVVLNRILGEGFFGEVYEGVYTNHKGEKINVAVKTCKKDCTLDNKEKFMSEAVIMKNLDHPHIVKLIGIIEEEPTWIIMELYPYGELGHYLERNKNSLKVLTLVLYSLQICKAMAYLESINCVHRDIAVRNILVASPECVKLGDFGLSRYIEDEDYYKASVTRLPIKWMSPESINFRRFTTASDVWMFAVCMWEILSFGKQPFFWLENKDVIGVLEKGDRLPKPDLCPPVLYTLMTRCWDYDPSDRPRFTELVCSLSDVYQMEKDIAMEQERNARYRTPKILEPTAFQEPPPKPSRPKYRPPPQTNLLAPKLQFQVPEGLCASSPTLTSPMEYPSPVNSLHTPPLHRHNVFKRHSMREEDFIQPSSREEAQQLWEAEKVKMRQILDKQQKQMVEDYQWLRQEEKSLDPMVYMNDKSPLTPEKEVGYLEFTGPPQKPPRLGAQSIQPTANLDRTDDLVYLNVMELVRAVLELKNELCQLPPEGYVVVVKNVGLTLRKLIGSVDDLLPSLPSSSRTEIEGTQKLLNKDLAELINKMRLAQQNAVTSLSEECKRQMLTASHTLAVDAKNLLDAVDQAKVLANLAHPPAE
# Ion channel NompC, sequence (Q7T1G6 whole entry): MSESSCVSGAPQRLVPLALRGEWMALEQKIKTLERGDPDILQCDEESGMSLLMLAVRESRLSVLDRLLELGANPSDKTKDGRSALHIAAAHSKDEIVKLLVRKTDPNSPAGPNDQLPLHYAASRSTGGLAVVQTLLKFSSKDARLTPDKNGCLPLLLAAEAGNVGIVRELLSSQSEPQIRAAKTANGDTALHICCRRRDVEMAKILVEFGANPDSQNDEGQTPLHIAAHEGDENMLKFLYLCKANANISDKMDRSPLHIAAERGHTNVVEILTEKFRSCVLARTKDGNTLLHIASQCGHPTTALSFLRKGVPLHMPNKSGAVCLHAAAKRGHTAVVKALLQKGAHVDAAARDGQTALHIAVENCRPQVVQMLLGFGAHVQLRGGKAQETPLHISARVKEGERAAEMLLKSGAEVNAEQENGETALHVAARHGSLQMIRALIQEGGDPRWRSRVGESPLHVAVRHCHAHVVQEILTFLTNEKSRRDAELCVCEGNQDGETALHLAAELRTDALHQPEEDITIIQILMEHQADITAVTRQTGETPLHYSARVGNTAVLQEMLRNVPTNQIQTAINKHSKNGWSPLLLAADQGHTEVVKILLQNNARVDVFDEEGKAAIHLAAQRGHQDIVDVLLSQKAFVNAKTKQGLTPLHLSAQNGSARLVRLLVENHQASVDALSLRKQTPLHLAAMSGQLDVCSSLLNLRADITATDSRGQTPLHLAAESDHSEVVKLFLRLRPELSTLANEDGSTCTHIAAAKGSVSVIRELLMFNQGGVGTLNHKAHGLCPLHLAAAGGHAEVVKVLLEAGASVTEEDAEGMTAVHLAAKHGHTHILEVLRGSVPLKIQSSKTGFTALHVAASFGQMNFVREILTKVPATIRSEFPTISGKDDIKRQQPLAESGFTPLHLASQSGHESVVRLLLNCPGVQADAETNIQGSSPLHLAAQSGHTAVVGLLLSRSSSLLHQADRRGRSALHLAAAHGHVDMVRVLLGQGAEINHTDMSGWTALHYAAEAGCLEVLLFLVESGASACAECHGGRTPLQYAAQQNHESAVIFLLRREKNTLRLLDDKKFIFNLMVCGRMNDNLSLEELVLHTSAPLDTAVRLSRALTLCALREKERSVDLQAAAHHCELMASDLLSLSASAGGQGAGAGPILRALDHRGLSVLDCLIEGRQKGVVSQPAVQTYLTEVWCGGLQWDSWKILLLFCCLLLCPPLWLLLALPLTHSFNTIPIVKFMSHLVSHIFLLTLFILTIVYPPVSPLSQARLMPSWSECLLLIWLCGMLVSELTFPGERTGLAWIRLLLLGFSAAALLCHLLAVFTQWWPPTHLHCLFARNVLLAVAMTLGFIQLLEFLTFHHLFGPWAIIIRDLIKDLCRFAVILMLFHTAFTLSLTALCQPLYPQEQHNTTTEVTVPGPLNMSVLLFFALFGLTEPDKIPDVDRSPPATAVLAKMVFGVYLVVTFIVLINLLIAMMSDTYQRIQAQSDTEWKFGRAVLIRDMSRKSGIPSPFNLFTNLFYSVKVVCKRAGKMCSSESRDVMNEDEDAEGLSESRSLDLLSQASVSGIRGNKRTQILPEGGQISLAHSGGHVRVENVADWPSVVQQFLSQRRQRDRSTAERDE
# Cytochrome P450 2C19, sequence (P33261 whole entry): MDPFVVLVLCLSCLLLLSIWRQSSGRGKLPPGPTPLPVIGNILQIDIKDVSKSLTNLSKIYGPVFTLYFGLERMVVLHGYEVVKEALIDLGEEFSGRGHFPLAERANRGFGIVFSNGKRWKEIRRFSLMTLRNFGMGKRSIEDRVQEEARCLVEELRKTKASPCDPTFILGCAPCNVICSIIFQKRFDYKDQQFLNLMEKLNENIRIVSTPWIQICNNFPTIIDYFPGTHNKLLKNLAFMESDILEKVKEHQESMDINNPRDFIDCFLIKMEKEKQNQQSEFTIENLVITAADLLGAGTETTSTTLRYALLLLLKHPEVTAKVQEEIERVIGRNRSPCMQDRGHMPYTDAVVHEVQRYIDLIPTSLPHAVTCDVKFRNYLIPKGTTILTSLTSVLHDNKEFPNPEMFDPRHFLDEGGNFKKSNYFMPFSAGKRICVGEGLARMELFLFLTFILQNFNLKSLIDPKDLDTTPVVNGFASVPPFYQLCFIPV
compound,measurement,setting,value
COCCCn1c2nc3ccccc3nc2c2c(=O)n(-c3ccccc3OC)c(C)nc21,EC50,Estrogen receptor,12.7 µM (not active)
Cc1ccc(S(=O)(=O)N(C)c2cc(S(=O)(=O)N3CCC(C)CC3)c(C)cc2C)cc1,EC50,Ion channel NompC,> 29.9 µM (not active)
same,EC50,Mucolipin-3,2.06 µM (active)
CCOC(=O)CSc1n[nH]c(NC(=O)c2cccc(C(F)(F)F)c2)n1,AC50,[1],11.3 µM (active)
same,AC50,Cytochrome P450 2C9,5.01 µM (inconclusive)
same,EC50,Protein RecA,12.4 µM (active)
same,AC50,Cytochrome P450 2C19,2.51 µM (inconclusive)
same,IC50,Prothrombin,0.515 µM (active)
COC(=O)CC(=O)Cc1nc(N)nc(Nc2ccc(C)c(C)c2)n1,EC50,[2],> 50 µM (not active)
CCOC(=O)c1ccc(NC(=O)CSc2ccc(-c3cccnc3)nn2)cc1,IC50,[3],> 100 µM (active)
O=C(Oc1ccccc1)c1c(Cl)cccc1P(=O)(O)O,IC50,[4],6.43 µM (active)
CN1C(=O)C(Cc2c[nH]c3ccccc23)C(=O)N(C)C1=O,IC50,14-3-3 protein gamma,> 50 µM (not active)
